Measured values as given in patent US12139473B2, “Substituted-N-heteroaryl compounds and uses thereof” (Bionomics Limited, priority 2019, dated 2024).

Legend:
hKv3.1 = biological target: T1, hKv3.1 (Homo sapiens, UniProt P48547); assay: Automated patch clamp electrophysiology (Patchliner), CHO/Kv3.1 cells; assay type: cell-based; conditions: 10 μM compound, hKv3.1 in CHO-K1, whole-cell; for Kv3.1 Activity at 10 μM Potentiation (%): peak current at voltage step of −10 mV vs vehicle (0.33% DMSO); for Kv3.1 Activity at 10 μM Voltage Shift (mV): voltage shift of the IV curve at V1/2
T1 construct: expressed in transfected cells
T1 sequence (P48547 1-511): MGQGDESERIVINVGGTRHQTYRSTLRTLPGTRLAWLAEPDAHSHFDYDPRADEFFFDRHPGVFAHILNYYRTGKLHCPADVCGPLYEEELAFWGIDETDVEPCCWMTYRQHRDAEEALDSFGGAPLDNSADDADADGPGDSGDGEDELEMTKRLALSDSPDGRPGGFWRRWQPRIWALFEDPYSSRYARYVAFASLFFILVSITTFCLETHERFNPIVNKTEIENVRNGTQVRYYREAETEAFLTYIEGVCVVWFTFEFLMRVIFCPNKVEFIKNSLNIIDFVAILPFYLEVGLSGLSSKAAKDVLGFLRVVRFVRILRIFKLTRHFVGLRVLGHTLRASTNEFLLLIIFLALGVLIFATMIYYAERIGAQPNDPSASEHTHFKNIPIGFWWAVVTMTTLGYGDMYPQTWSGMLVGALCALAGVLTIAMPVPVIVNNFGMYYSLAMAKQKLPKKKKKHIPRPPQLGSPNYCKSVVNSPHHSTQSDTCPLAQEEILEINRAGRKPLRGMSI
Experimental: (§1) hKv3.1, hKv3.2, hKv3.3, and hKv3.4 were stably expressed in CHO-K1 (Chinese hamster ovary) cells and kept under constant antibiotic selection. For in vitro assays, cells were maintained in appropriate growth medium at 37° C. and 5% CO2 in a humidified incubator.
(§2) hKv3.X expressing cells were plated in T-25 flasks for 3-4 days at 37° C. (no selection antibiotic) prior to use and grown to 80% confluence. Cells were washed twice with PBS (calcium and magnesium free) and detached with a 5-minute treatment at 37° C. with 2-3 mls of Accutase®. Cells were collected, and flask was washed in CHO-SFM II media (Life Technologies Gibco), centrifuged for 2 minutes at ˜110×g and resuspended to obtain a single cell suspension of ˜2-3×10^6 cells/ml.
(§3) The intracellular solution contained the following (in mM): KCl 50, NaCl 10, KF 60, EGTA 20, HEPES 10, adjusted to pH 7.2 with KOH and an osmolarity of 285 mOsmol. Seal enhancer was purchased from Nanion (80 mM NaCl, 3 mM KCl, 10 mM MgCl2, 35 mM CaCl2), 10 mM HEPES, pH7.4, 298 mOsmol. The external solution contained (in mM): NaCl 140, KCl 4, CaCl2) 2, MgCl2 1, HEPES 10, Glucose 5, adjusted to pH7.4 and an osmolarity of 298 mOsmol.
(§4) All compounds were initially tested at 10 uM at a final DMSO concentration of 0.33%. Compounds were dissolved in dimethylsulfoxide (DMSO) at a stock concentration of 30 mM. The compound was further diluted 1:10 to give a stock concentration of 3 mM in DMSO. The final assay solution was diluted 1:300 in External solution to give a final concentration of 10 uM. For the DMSO Control Buffer 30 uL of DMSO was added to 10 mL buffer.
(§5) All electrophysiological recordings were performed at ambient temperature (21-23° C.) using automated patch clamp (Patchliner, Nanion Technologies GmbH) in the whole-cell configuration.
(§6) Cell membrane potentials were held at −80 mV, and currents were evoked by voltage steps (1000 ms duration) from −60 to +60 mV in 10 mV increments. This was performed first with vehicle (0.33% DMSO) and then with 10 uM compound, after a 3-minute incubation period. Data was taken from 4 cells per assay.
(§7) The recordings were analysed and selected using peak current amplitude (>100 pA at the −10 mV voltage step) in the absence of compound to eliminate unsuitable cells from analysis. Peak current amplitude was measured and recorded for each voltage step and data was normalised to the maximum current at +60 mV. The normalised Kv3.x currents following addition of the compound were then compared with the currents recorded prior to compound addition (vehicle control). Positive modulation was determined as % potentiation at the voltage step of −10 mV=[current (cmpd)/current (veh)]*100−100. % potentiation≥50% was considered acceptable. In addition, voltage shift of the IV curve at V1/2 was measured. V1/2 of ≥−5 mV was also considered acceptable. IV curves were plotted in GraphPad Prism (software version 6.0) and fitted with a Boltzmann equation, where V1/2 is the voltage at half-maximal activation.

hKv3.2 = biological target: T2, hKv3.2 (Homo sapiens, UniProt Q96PR1); assay: Automated patch clamp electrophysiology (Patchliner), CHO/Kv3.2 cells; assay type: cell-based; conditions: 10 μM compound, hKv3.2 in CHO-K1, whole-cell; for activation at 10 µM: peak current at voltage step of −10 mV vs vehicle (0.33% DMSO), read-out: Kv3.2 Activity at 10 μM Potentiation (%); for Kv3.2 Activity at 10 μM Voltage Shift (mV): voltage shift of the IV curve at V1/2
T2 construct: expressed in transfected cells
T2 sequence (Q96PR1 1-638): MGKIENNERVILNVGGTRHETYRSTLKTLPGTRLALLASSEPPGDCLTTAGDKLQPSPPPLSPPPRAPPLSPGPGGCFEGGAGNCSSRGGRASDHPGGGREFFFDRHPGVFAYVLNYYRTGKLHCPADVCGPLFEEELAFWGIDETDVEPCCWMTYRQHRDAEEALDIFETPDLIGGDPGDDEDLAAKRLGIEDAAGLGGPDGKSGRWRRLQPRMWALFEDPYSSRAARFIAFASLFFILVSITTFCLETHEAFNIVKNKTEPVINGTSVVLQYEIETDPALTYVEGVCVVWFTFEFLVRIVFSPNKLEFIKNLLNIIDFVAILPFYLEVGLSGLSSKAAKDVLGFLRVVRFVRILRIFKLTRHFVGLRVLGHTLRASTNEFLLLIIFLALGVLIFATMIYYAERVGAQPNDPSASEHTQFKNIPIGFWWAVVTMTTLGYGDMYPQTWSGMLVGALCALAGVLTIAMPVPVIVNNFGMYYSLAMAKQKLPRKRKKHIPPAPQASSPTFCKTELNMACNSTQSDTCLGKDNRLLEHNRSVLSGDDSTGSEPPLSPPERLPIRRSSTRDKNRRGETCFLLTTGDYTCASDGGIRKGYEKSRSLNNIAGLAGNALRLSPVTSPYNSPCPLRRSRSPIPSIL
Experimental: as §1, §2, §3, §4, §5, §6, §7

SMILES	Kv3.1 Activity at 10 μM Potentiation (%) (hKv3.1)	Kv3.1 Activity at 10 μM Voltage Shift (mV) (hKv3.1)	activation at 10 µM (hKv3.2)	Kv3.2 Activity at 10 μM Voltage Shift (mV) (hKv3.2)
COc1cc(Oc2cc(N3C(=O)NC(C)(C)C3=O)ncn2)ccc1C [Example 1, 3-[6-(3-methoxy-4-methyl-phenoxy)pyrimidin-4-yl]-5,5-dimethyl-imidazolidine-2,4-dione]	45%	−5.5 mV	25%	−4.3 mV
COc1cc(Oc2cc(N3C(=O)NC(C)(C)C3=O)ncn2)ccc1F [Example 13, 3-[6-(3-methoxy-4-fluoro-phenoxy)pyrimidin-4-yl]-5,5-dimethyl-imidazolidine-2,4-dione]	40%	−2.7 mV	86%	−9.2 mV
COc1cc(Oc2cc(N3C(=O)NC4(CCCC4)C3=O)ncn2)ccc1F [Example 14, 3-[6-(4-fluoro-3-methoxy-phenoxy)pyrimidin-4-yl]-1,3-diazaspiro[4.4]nonane-2,4-dione]	43%	−2.3 mV	42%	−1.1 mV
COc1cc(Oc2cc(N3C(=O)NC4(CCCCC4)C3=O)ncn2)ccc1F [Example 15, 3-[6-(4-fluoro-3-methoxy-phenoxy)pyrimidin-4-yl]-1,3-diazaspiro[4.5]decane-2,4-dione]	17%	−2.7 mV	1%	−0.3 mV
Cc1ccc(Oc2cc(N3C(=O)NC(C)(C)C3=O)ncn2)cc1F [Example 16, 3-[6-(3-fluoro-4-methyl-phenoxy)pyrimidin-4-yl]-5,5-dimethyl-imidazolidine-2,4-dione]	63%	−4.2 mV	24%	−2.8 mV
Cc1ccc(Oc2cc(N3C(=O)NC(C)(C)C3=O)ncn2)c2c1OCC21CC1 [Example 47, 5,5-dimethyl-3-[6-(7-methylspiro[2H-benzofuran-3,1′-cyclopropane]-4-yl)oxypyrimidin-4-yl]imidazolidine-2,4-dione]	36%	−2.8 mV	54%	−4.9 mV
COc1cc(Oc2ccnc(N3C(=O)NC4(CCCCC4)C3=O)n2)ccc1C [Example 50, 3-[4-(3-methoxy-4-methyl-phenoxy)pyrimidin-2-yl]-1,3-diazaspiro[4.5]decane-2,4-dione]	2%	−1.5 mV	-7%	+1.6 mV
COc1cc(Oc2cncc(N3C(=O)NC(C)(C)C3=O)n2)ccc1C [Example 53, 3-[6-(3-methoxy-4-methyl-phenoxy)pyrazin-2-yl]-5,5-dimethyl-imidazolidine-2,4-dione]	52%	−4.0 mV	49%	−6.0 mV
CC[C@H]1NC(=O)N(c2nccc(Oc3ccc(C)c(OC)c3)n2)C1=O [Example 56, (5R)-5-ethyl-3-[4-(3-methoxy-4-methyl-phenoxy)pyrimidin-2-yl]imidazolidine-2,4-dione]	26%	−5.0 mV	35%	−4.6 mV
CC[C@H]1NC(=O)N(c2nccc(Oc3ccccc3-c3ccccc3)n2)C1=O [Example 58, (5R)-5-ethyl-3-[4-(2-phenylphenoxy)pyrimidin-2-yl]imidazolidine-2,4-dione]	61%	−6.9 mV	39%	−4.6 mV
COc1cc(Oc2nccc(N3C(=O)NC(C)(C)C3=O)n2)ccc1C [Example 63, 3-[2-(3-methoxy-4-methyl-phenoxy)pyrimidin-4-yl]-5,5-dimethyl-imidazolidine-2,4-dione]	50%	−4.2 mV	25%	−2.3 mV
COc1cc(Oc2nccc(N3C(=O)NC(C)(C)C3=O)n2)ccc1F [Example 64, 3-[2-(3-methoxy-4-fluoro-phenoxy)pyrimidin-4-yl]-5,5-dimethyl-imidazolidine-2,4-dione]	34%	−1.8 mV	–	–
COc1cc(Oc2nccc(N3C(=O)NC(C)(C)C3=O)n2)ccc1Cl [Example 66, 3-[2-(4-chloro-3-methoxy-phenoxy)pyrimidin-4-yl]-5,5-dimethyl-imidazolidine-2,4-dione]	–	–	54%	−3.5 mV
COc1cc(Oc2cnnc(N3C(=O)NC(C)(C)C3=O)c2)ccc1C [Example 77, 3-[5-(3-methoxy-4-methyl-phenoxy)pyridazin-3-yl]-5,5-dimethyl-imidazolidine-2,4-dione]	26%	−2.4 mV	–	–
